Results reported in ChEMBL document CHEMBL1201862, “PubChem BioAssay data set” (2004).
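Compound exposure: 48 hours, 5 concentrations, 96-well plates. GI50: concentration for 50% inhibition of growth.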 Active and inactive are the calls of the source. No stated cut-off is given here; in the data, active = GI50 up to about 1.1 µM and inactive = higher.

What was measured:
Assay in all cases: growth of human tumour cells (NCI), 48 h
A549 = system: A549
NCI-H23 = system: NCI-H23
A498 = system: A498
COLO 205 = system: COLO 205
RPMI-8226 = system: RPMI-8226
SR = system: SR
OVCAR-3 = system: OVCAR-3
CCRF-CEM = system: CCRF-CEM
LOX IMVI = system: LOX IMVI
SF-295 = system: SF-295
UO-31 = system: UO-31
OVCAR-5 = system: OVCAR-5
K562 = system: K562
TK-10 = system: TK-10
786-0 = system: 786-0
SN12C = system: SN12C
MDA-MB-435 = system: MDA-MB-435
SK-OV-3 = system: SK-OV-3
HCC 2998 = system: HCC 2998
HOP-92 = system: HOP-92

| Compound | GI50 (A549) | GI50 (NCI-H23) | GI50 (A498) | GI50 (COLO 205) | GI50 (RPMI-8226) | GI50 (SR) | GI50 (OVCAR-3) | GI50 (CCRF-CEM) | GI50 (LOX IMVI) | GI50 (SF-295) | GI50 (UO-31) | GI50 (OVCAR-5) | GI50 (K562) | GI50 (TK-10) | GI50 (786-0) | GI50 (SN12C) | GI50 (MDA-MB-435) | GI50 (SK-OV-3) | GI50 (HCC 2998) | GI50 (HOP-92) |
| --- | --- | --- | --- | --- | --- | --- | --- | --- | --- | --- | --- | --- | --- | --- | --- | --- | --- | --- | --- | --- |
| CCn1c(=N)sc2nc3ccccc3n2c1=O | > 100 µM (inactive) | > 100 µM (inactive) | > 100 µM (inactive) | > 100 µM (inactive) | > 100 µM (inactive) | > 100 µM (inactive) | > 100 µM (inactive) | 90.8 µM (inactive) | > 100 µM (inactive) | > 100 µM (inactive) | 14.9 µM (inactive) | > 100 µM (inactive) | > 100 µM (inactive) | > 100 µM (inactive) | > 100 µM (inactive) | > 100 µM (inactive) | > 100 µM (inactive) | > 100 µM (inactive) | > 100 µM (inactive) | > 100 µM (inactive) |
| Cc1cc(C(=C2C=CC(=N)C=C2)c2ccc(N)cc2)ccc1N [FUCHSIN, BASIC] | 3.38 µM (inactive) | 2.98 µM (inactive) | 32.5 µM (inactive) | 1.01 µM (active) | 2.42 µM (inactive) | 13.3 µM (inactive) | 3.96 µM (inactive) | 4.19 µM (inactive) | 2.25 µM (inactive) | 0.564 µM (active) | 17.6 µM (inactive) | 11.4 µM (inactive) | 2.79 µM (inactive) | 8.97 µM (inactive) | 1.09 µM (active) | 0.299 µM (active) | 4.08 µM (inactive) | 3.58 µM (inactive) | 3.23 µM (inactive) | 6.81 µM (inactive) |
| O=C1c2ccccc2/N=C(/c2cc3c(cc2Cl)Sc2nccn2S3(=O)=O)OS(=O)(=O)N1c1ccccc1 | 30.3 µM (inactive) | 22.4 µM (inactive) | > 100 µM (inactive) | 19.9 µM (inactive) | 18.6 µM (inactive) | 10.8 µM (inactive) | 37 µM (inactive) | 4.65 µM (inactive) | 8.09 µM (inactive) | 16.9 µM (inactive) | 26 µM (inactive) | 19.4 µM (inactive) | 35.2 µM (inactive) | 24.4 µM (inactive) | 38.4 µM (inactive) | 32.1 µM (inactive) | 21.3 µM (inactive) | 36.3 µM (inactive) | 8.36 µM (inactive) | 80.5 µM (inactive) |
| FC(F)(F)C1(C(F)(F)F)O[Si]2(OC(C(F)(F)F)(C(F)(F)F)c3ccccc32)c2ccccc21 | 13.5 µM (inactive) | 10.6 µM (inactive) | 13.7 µM (inactive) | 14.8 µM (inactive) | 17.2 µM (inactive) | 9.95 µM (inactive) | 16.5 µM (inactive) | 10.5 µM (inactive) | 9.44 µM (inactive) | 5.2 µM (inactive) | 9.12 µM (inactive) | 14.5 µM (inactive) | 10.3 µM (inactive) | 17.4 µM (inactive) | 12.7 µM (inactive) | 9.02 µM (inactive) | 11.3 µM (inactive) | 15.8 µM (inactive) | 13.7 µM (inactive) | 3.69 µM (inactive) |
| COC(=O)/C=C1\C(=O)N(C(C)=O)c2ccccc21 | 7.18 µM (inactive) | 14.6 µM (inactive) | 0.0371 µM (active) | 12.2 µM (inactive) | 11.9 µM (inactive) | 2.52 µM (inactive) | 7.67 µM (inactive) | 2.97 µM (inactive) | 3.91 µM (inactive) | 17 µM (inactive) | 12.9 µM (inactive) | 22.1 µM (inactive) | 5.61 µM (inactive) | 7.14 µM (inactive) | 4.9 µM (inactive) | 6.22 µM (inactive) | 11.3 µM (inactive) | 14.8 µM (inactive) | 15.4 µM (inactive) | 2.04 µM (inactive) |
| COc1ccc(C(=C2C(=O)N(c3ccccc3)C(=O)C2=C(C)C)c2ccc(OC)cc2)cc1 | 5.21 µM (inactive) | > 28 µM (inactive) | 2.94 µM (inactive) | 2.96 µM (inactive) | 4.1 µM (inactive) | 1.09 µM (active) | 3.56 µM (inactive) | 0.546 µM (active) | 3.72 µM (inactive) | 3.17 µM (inactive) | 2.75 µM (inactive) | 8.69 µM (inactive) | 3.27 µM (inactive) | 14 µM (inactive) | 3.43 µM (inactive) | 4.02 µM (inactive) | 1.45 µM (inactive) | 4.79 µM (inactive) | 5.5 µM (inactive) | 10.3 µM (inactive) |
| CCOc1c2ccsc2c(OCC)c2ccsc12 | 7.21 µM (inactive) | 4.34 µM (inactive) | 7.03 µM (inactive) | 4.21 µM (inactive) | 4.06 µM (inactive) | 4.32 µM (inactive) | 3.52 µM (inactive) | 3.77 µM (inactive) | 2.61 µM (inactive) | 2.57 µM (inactive) | 9.02 µM (inactive) | 11.8 µM (inactive) | 2.95 µM (inactive) | > 100 µM (inactive) | 4.44 µM (inactive) | 20.6 µM (inactive) | 0.766 µM (active) | 3.92 µM (inactive) | 6.56 µM (inactive) | 2.57 µM (inactive) |
| CC(NNC(=O)c1ccncc1)c1ccc(Cl)cc1Cl (centres undefined) | > 100 µM (inactive) | > 100 µM (inactive) | > 100 µM (inactive) | > 100 µM (inactive) | 77.8 µM (inactive) | 55.3 µM (inactive) | > 100 µM (inactive) | 49.4 µM (inactive) | 86.5 µM (inactive) | 72.9 µM (inactive) | 38.9 µM (inactive) | > 100 µM (inactive) | > 100 µM (inactive) | > 100 µM (inactive) | > 100 µM (inactive) | > 100 µM (inactive) | > 100 µM (inactive) | > 100 µM (inactive) | > 100 µM (inactive) | 70.6 µM (inactive) |
| COC1(CC[C@H](C)COC2OC(CO)C(O)C(O)C2O)O[C@H]2C[C@H]3[C@@H]4CC=C5C[C@@H](OC6OC(CO)C(O)C(OC7OC(CO)C(O)C(O)C7O)C6OC6OC(C)C(O)C(O)C6O)CC[C@]5(C)[C@H]4CC[C@]3(C)[C@H]2[C@@H]1C (some centres undefined) | 2.73 µM (inactive) | 6.52 µM (inactive) | 17.8 µM (inactive) | 4.08 µM (inactive) | 2.54 µM (inactive) | > 100 µM (inactive) | 16.7 µM (inactive) | 3.17 µM (inactive) | 2.68 µM (inactive) | 3.3 µM (inactive) | 2.14 µM (inactive) | 6.07 µM (inactive) | 4.88 µM (inactive) | 21.2 µM (inactive) | 2.32 µM (inactive) | 5.41 µM (inactive) | 1.87 µM (inactive) | 12.1 µM (inactive) | 4.86 µM (inactive) | 3.37 µM (inactive) |
| S=C(NCCc1ccccn1)c1nc[nH]c1C(=S)NCCc1ccccn1 | 32.3 µM (inactive) | 39.4 µM (inactive) | > 100 µM (inactive) | 49.7 µM (inactive) | 26 µM (inactive) | 34 µM (inactive) | 37.9 µM (inactive) | 26.1 µM (inactive) | 20.7 µM (inactive) | 25.1 µM (inactive) | 29 µM (inactive) | > 100 µM (inactive) | 40.8 µM (inactive) | 62.1 µM (inactive) | 53.3 µM (inactive) | 68.5 µM (inactive) | 30.1 µM (inactive) | > 100 µM (inactive) | 76.9 µM (inactive) | 53.6 µM (inactive) |
| O=C1Nc2ccccc2/C1=C1/Nc2ccccc2/C1=N/OCCO | 1.52 µM (inactive) | 0.656 µM (active) | 0.213 µM (active) | 3.99 µM (inactive) | > 100 µM (inactive) | 0.546 µM (active) | 1.51 µM (inactive) | > 100 µM (inactive) | 0.69 µM (active) | 17.3 µM (inactive) | 0.363 µM (active) | > 100 µM (inactive) | > 100 µM (inactive) | 9.73 µM (inactive) | 13 µM (inactive) | 29 µM (inactive) | 2.47 µM (inactive) | 0.299 µM (active) | 24.8 µM (inactive) | > 100 µM (inactive) |
| Cn1c2ccccc2n2c3ccccc3c3nnc(N)c-3c12 | > 100 µM (inactive) | 17.5 µM (inactive) | > 100 µM (inactive) | 32.4 µM (inactive) | > 100 µM (inactive) | 26.7 µM (inactive) | 28.2 µM (inactive) | 37.3 µM (inactive) | 57.7 µM (inactive) | 5.58 µM (inactive) | > 100 µM (inactive) | > 100 µM (inactive) | > 65.8 µM (inactive) | > 100 µM (inactive) | 0.847 µM (active) | 0.757 µM (active) | > 88.7 µM (inactive) | > 95.1 µM (inactive) | 41.2 µM (inactive) | 42.4 µM (inactive) |
| CC1NC(/C(=C/c2ccccc2O)NC(=O)c2ccccc2)OC1=O (centres undefined) | > 50 µM (inactive) | > 50 µM (inactive) | > 50 µM (inactive) | > 50 µM (inactive) | > 50 µM (inactive) | 2.52 µM (inactive) | > 50 µM (inactive) | > 50 µM (inactive) | > 50 µM (inactive) | > 50 µM (inactive) | > 50 µM (inactive) | > 50 µM (inactive) | > 50 µM (inactive) | > 50 µM (inactive) | 16.3 µM (inactive) | > 50 µM (inactive) | 28.8 µM (inactive) | 48.2 µM (inactive) | > 50 µM (inactive) | 11 µM (inactive) |
| CC(C)C(C=O)C(O)(C(F)(F)F)C(F)(F)F (centres undefined) | > 100 µM (inactive) | > 100 µM (inactive) | > 100 µM (inactive) | > 100 µM (inactive) | > 100 µM (inactive) | > 100 µM (inactive) | > 100 µM (inactive) | > 10 µM (inactive) | > 100 µM (inactive) | > 100 µM (inactive) | > 100 µM (inactive) | > 100 µM (inactive) | > 100 µM (inactive) | > 100 µM (inactive) | > 100 µM (inactive) |  | > 100 µM (inactive) | > 100 µM (inactive) | > 100 µM (inactive) | > 100 µM (inactive) |
